Starred links: 1 amine or outer side, 2 acyl side, 3 side chain; linkers in the order of their positions; H or OH if unused. Positions of bridges follow the written chain, without caps; N, C: chain ends. Non-standard residues stand in square brackets, D forms with d. Residues, ends and D or L forms follow the SMILES beside them. Chains are numbered I, II in the order given. *: point of attachment. isoGln = NC(=O)[C@H](CCC(=O)[*:2])N[*:1]; εLys = N[C@@H](CCCCN[*:1])C(=O)[*:2]; Dab = NCC[C@H](N)C(=O)O; PhAc = O=C(Cc1ccccc1)*
Legend:
[1] = tested on: skin blood flow (SBF); experiment: Skin blood flow (SBF), laser Doppler, anesthetized Wistar rats, IV infusion; type: in vivo, rat
Procedure: This study was performed over multiple experiments using a total of 48 adult male Wistar rats. […] Compounds were infused via an IV catheter at six sequentially increasing doses.
On the day of experimentation animals were anesthetized and instrumented. A tracheostomy was performed to allow assisted respiration and three catheters were placed. Laser Doppler probes were positioned on a shaved portion of the animal's lower abdominal skin for blood-flow measurements. Ventilation was initiated, and baseline readings for the primary parameter of skin blood flow (SBF) were recorded. Readings for the secondary parameters were also recorded: (1) blood lactate concentration, (2) mean arterial pressure (MAP), and (3) blood pH. Data collection was performed continuously for SBF and MAP using NOTOCORD-hem™ (Instem), and blood samples were taken at each compound dose and immediately analyzed using an i-STAT® meter.
After the final dose administration, animals were euthanized and a final SBF measurement was recorded to detect any signal from the flow probe after the animal's heart stopped beating to control for a signal not attributed to blood flow. Animal body temperature, pulse, and ventilation adequacy were monitored throughout the procedure.

[2] = Safety and tolerability / adverse events in healthy subjects; type: in vivo, human
Source text: The terms “adverse event” or “AE” as used herein, refer to an untoward medical occurrence in an individual, such as an individual participating in a clinical trial. In some instances, an AE is an unfavorable and/or unintended sign, symptom, or disease, such as being temporally associated with the use of an investigative medicinal product (IMP), whether or not considered to be caused by the IMP. For example, an AE can include accidental injuries, reasons for any change in medication (drug and/or dose), reasons for any medical, nursing or pharmacy consultation, or reasons for admission to hospital or surgical procedures, and overdoses and medication errors with or without clinical consequences. In some instances, AEs are anticipated based on the pharmacological effect of the IMP. In some instances, an AE is a laboratory abnormality, vital sign or finding from physical or gynecological examination assessed as clinically significant by the investigator. In some instances, a pre-treatment adverse event is any untoward medical occurrence arising or observed between signing of informed consent and the first administration of the IMP. In some instances, a treatment emergent adverse event is an AE occurring after the administration of the IMP and within the time of residual drug effect, or a pre-treatment adverse event or pre-existing medical condition that worsens in intensity after administration of the IMP and within the time of residual drug effect.
Injection site reactions were assessed by the Investigator in treatment Period 2 only, immediately after, 0.5, 4, and 24 hours after subcutaneous administration of the study drug on Days 1 to 5. The injection site reactions to be assessed were erythema, pain, pruritus, oedema, bruising, and pallor, each to be assessed as none, mild, moderate, or severe. Injection site reactions other than those described above or persisting longer than 24 hours were classified as adverse events (AEs).
Blood samples for hematology and hemostasis parameters were collected on Day −1, and at 2, and 4 hours after the administration on Day 1, pre-dose, and 3 hours after the administration on Days 2-4, pre-dose, and at 2, and 6 hours after the administration on Day 5 and at follow-up. The actual sampling times were recorded.
Urinalysis was performed locally by means of a dip-stick test. […] In case any result of the dipstick was abnormal and clinically significant, a new urine test was to be performed. If the abnormal result was confirmed, further examination could be initiated at the discretion of the Investigator. Clinically significant abnormal findings were reported as AEs. The metabolite pattern of Compound 1 in plasma and urine were measured.

[3] = Safety and tolerability in healthy rats; type: in vivo, rat
Procedure: Rat models were used as a model to assess PK/PD of Compound 1.
Four adult male Sprague Dawley rats were catheterized via the carotid artery (for blood collection). […] Blood samples were collected at nominal times of 5, 10, 20, 40, 60, 90, 120, 180, 240, and 300 min after administration using an automated blood sampling system as described above. Plasma was prepared from whole blood using K2EDTA as anticoagulant. Subsequent bioanalysis of samples included compound extraction and plasma concentration determination using standard LC/MS methods.
The study was performed using six adult male Sprague Dawley rats, aged ~11 weeks. The pressure catheter was a polyurethane tubing that extended out of the device body and was inserted into the lower abdominal aorta. A postoperative injection of analgesia (flunixin, 5 mg per animal; Finadyne®, Schering-Plough) was given once immediately after implantation, and once at an interval of 24 h. The surgical wounds were disinfected with povidone iodine (Vétédine®, Vetoquinol SA) for 4 consecutive days. After surgery, the animals recovered for ~2 weeks before first study administration (day 0).
On the days of administration, animals were examined before and immediately after administration, and at least once after dosing (after the ≥4-h analysis time point) to detect any clinical signs or reaction to administration. A full clinical examination was performed weekly.

[4] = molecular target: T1, hV1b receptor (Homo sapiens, UniProt P47901); experiment: Luciferase reporter gene assay, human V1b; conditions: read-out: % MPE
T1 sequence (P47901 1-424): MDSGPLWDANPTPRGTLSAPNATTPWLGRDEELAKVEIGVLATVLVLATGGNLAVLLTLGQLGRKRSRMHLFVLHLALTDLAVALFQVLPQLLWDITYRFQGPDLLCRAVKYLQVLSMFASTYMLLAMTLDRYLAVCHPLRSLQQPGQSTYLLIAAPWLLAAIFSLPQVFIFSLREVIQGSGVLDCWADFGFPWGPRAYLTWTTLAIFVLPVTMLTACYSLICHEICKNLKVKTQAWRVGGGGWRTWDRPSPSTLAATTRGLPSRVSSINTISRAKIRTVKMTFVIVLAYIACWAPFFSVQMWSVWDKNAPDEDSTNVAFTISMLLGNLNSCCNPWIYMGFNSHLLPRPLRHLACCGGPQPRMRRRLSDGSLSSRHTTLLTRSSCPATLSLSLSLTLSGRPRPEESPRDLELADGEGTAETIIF
Procedure: Cell Lines. Studies were conducted with cell lines expressing rat (r) or human (h) Via, V1b, V2, or OT receptors. For the experiments with human receptors, human embryonic kidney (HEK)-flp-in cells stably expressing the lacZ-Zeocin™ fusion gene were used for expression of hV1a and hV1b. These cells were designed for use with the Flp-In™ expression vector containing the gene of interest (here hV1a or hV1b) and the Flp recombinase expression plasmid, pOG44. For hV2 and hOTR, HEK-293 cells transiently expressing hV2 were used.
Cell Maintenance. […]
Functional Cell-Based Assays. To detect activity generated by binding of the test compounds to endogenous rV1a receptors or the stably expressed hV1a receptors, Fluorometric Imaging Plate Reader (FL1PR) calcium assays were performed. Briefly, real-time fluorescence of an intracellular calcium-sensitive dye was measured immediately upon addition of the test compound at various concentrations. […] Expression of the luciferase gene was determined after 5-h incubation with various concentrations of test compound. […] For V1a receptor response, area under the curve of the real-time calcium traces, expressed as relative fluorescence units, was determined. […]

[5] = M1 formation after IV and SC (bolus) injection in healthy rats; conditions: in vivo, s.c. (bolus) injection, rat
Source text: A similar study in healthy rats was used to evaluate the differences between metabolite formation of Compound 1 after IV bolus and SC (bolus) injection.

[6] = M1 formation, subcutaneous infusion in mini-pigs; parameters: species or system mini-pig; conditions: minipig, in vivo, sc, s.c. infusion
[7] = i.v., Period 1, active treatment
[8] = s.c., Period 2, active treatment

With CC[C@H](C)[C@@H]1NC(=O)[C@H](Cc2ccccc2)NC(=O)[C@@H](N)CSSC[C@@H](C(=O)N2CCC[C@H]2C(=O)N[C@@H](CCNC(=O)[C@@H](N)CCCCNC(=O)[C@H](CCCCNC(C)=O)NC(=O)CC[C@H](NC(=O)[C@H](CCCNC(=N)N)NC(=O)[C@@H]2CCCN2C(=O)[C@H](C)NC(=O)[C@H](CC(N)=O)NC(=O)[C@H](CCC(N)=O)NC(=O)[C@H](Cc2ccccc2)NC(=O)[C@@H](Cc2ccc(OC)cc2)NC(=O)Cc2ccccc2)C(N)=O)C(=O)NCC(N)=O)NC(=O)[C@H](CC(N)=O)NC(=O)[C@H](CCC(N)=O)NC1=O [Compound 1, Glycinamide, L-cysteinyl-L-phenylalanyl-L-isoleucyl-L-glutaminyl-L-asparaginyl-L-cysteinyl-L-prolyl-N4-(phenylacetyl-O-methyl-D-tyrosyl-L-phenylalanyl-L-glutaminyl-L-asparaginyl-L-alanyl-L-prolyl-L-arginyl-L-isoglutamyl-N5-acetyl-L-lysyl-L-ε-lysyl)-L-2,4-diaminobutyryl-, cyclic (1→6)-disulfide] (I: H-CFIQNCP[Dab]G-NH2 / II: PhAc-[dY](Me)FQNAPR[isoGln]K(Ac)[εLys]; disulfide I:1-I:6; amide I:8-II:C) the “SBF ED50” value [1] was 25.2 pmol/kg/min, the “SBF Emax” value [1] was 38.6% and the “greatest percent change from baseline in skin flow” value [1] was −42.1%. For the same compound, the “severe AEs” value ([2]; i.v. 0.1 mg (bradycardia)) was “One”, the “TEAEs regarded as ADRs” value ([2]; i.v., 34 subjects on active treatment) was 87 and the “serious AEs” value ([2]; i.v., Period 1) was “No serious AEs occurred”. The “number of TEAEs” value [2, 7] was 94, the “subjects with TEAEs” value [2, 7] was 35 of the 48 and the “maximum tolerated s.c. dose (MTD)” value ([2]; s.c.) was “about 0.1 mg”. For the same compound, the “severe AEs” value ([2]; s.c. 0.1 mg (abdominal pain)) was 3, the “subjects with moderate oedema and mild pain at injection site” value ([2]; s.c. 0.1 mg, 30 min) was 1 subject and the “severe AEs” value ([2]; s.c. 0.3 mg (abdominal pain, back pain), 1 subject) was 2. The “serious AEs leading to discontinuation” value ([2]; s.c. 0.3 mg (elevated troponin I)) was 1, the injection site reactions ([2]; s.c. (bolus) injection) was “Erythema, pallor, and pruritus of mild severity” and the “TEAEs regarded as ADRs” value ([2]; s.c., 9 subjects on active treatment) was 87. The “AE leading to death” value ([2]; s.c., Period 2) was “No AE led to death”, the “number of TEAEs” value [2, 8] was 87 and the “subjects with TEAEs” value [2, 8] was 9 subjects. The tolerability ([2]; single i.v. infusion, about 0.9 mg or less) was “safe and well tolerated”, the “animals with local reaction at injection site” value ([3]; SC 4 and 20 mg/kg) was “three of the six” and the tolerability ([3]; SC bolus) was “well tolerated”. The bodyweight gain ([3]; SC, four administrations up to 20 mg/kg) was “did not influence bodyweight gain”, the deaths ([3]; SC, up to 20 mg/kg) was “no deaths occurred” and the tolerability ([3]; single SC, conscious rats, all tested dose levels) was “well tolerated at all tested dose levels”. The tolerability ([3]; single-dose IV bolus (cassette)) was “well tolerated”, the Emax [4] was 72% and the metabolised [5] was 80 to 90%. It also gave a metabolised [6] of less than 20%.

From patent US20260315609A1, “MIXED VASOPRESSIN RECEPTOR AGONIST-ANTAGONIST FOR TREATING END-STAGE LIVER DISEASE AND COMPLICATIONS ASSOCIATED THEREOF” (FERRING B.V., priority 2022, published 2026)
